Entries after “also recorded” stand apart in the source; their conditions may differ.
What follows are substances tested on β-catenin (assay: TCF reporter assay in Human Hair Follicular Keratinocytes (HHFK) cell line). Conditions: 200 μM peptide, vs untreated CTL, listed as SEQ ID No: 1 peptide.
Assay type: cell-based
Method: (§1) FIG. 4 illustrates a schematic view of a TCF reporter assay in Human Hair Follicular Keratinocytes (HHFK) cell line. TOP represents that the reporter gene has a functional binding site where β-catenin is bound. […] CTL represents that HHFK cell line is not treated with any stimulant. iPept-2 means that HHFK cell line is treated with the SEQ ID No: 1 peptide.
(§2) The SEQ ID No. 1 peptide is treated in Human Hair Follicular Keratinocytes (HHFK) and HaCaT Keratinocyte to study the hair growth mechanism induced by the SEQ ID No. 1 peptide.
(§3) In the present disclosure, HHFK and HaCaT Keratinocyte are used as cell models for realizing the mechanism. Reporter assay is used as bioactivity assays to identify how the SEQ ID No. 1 peptide improves hair growth.

Substance	activity of β-catenin (relative luciferase activity, TOP/FOP reporter)
SPLAQAVRSSSR (a designed peptide according to experiments) [P1]	increase the activity of β-catenin; also recorded: enhance activity of β-catenin

Each substance was assayed on β-catenin (assay: TCF reporter assay in HaCaT Keratinocyte cell line). Conditions: 200 μM peptide; HaCaT Keratinocytes; vs untreated CTL; listed as SEQ ID No: 1 peptide.
Assay type: cell-based
Method: as §1, with “3” for “4”, “HaCaT Keratinocyte” for “Human Hair Follicular Keratinocytes (HHFK)”, “HaCaT Keratinocytes are” for “HHFK cell line is”
as §2, §3

Substance	activity of β-catenin (relative luciferase activity, TOP/FOP reporter)
SPLAQAVRSSSR (a designed peptide according to experiments) [P1]	increase the activity of β-catenin; also recorded: enhance activity of β-catenin

The substances below were run on hair follicles on the dorsal skin at the refractory telogen phase (assay: mouse model of hair regeneration (sample applied on dorsal skin at refractory telogen phase)). Conditions: high dosage level (2000 μM) administrated on the dorsal skin once a day for 10 days; female C57BL/6 mice; negative = no hair growth.
Assay type: in vivo
From the text: The experimental model of the present disclosure is derived from the mouse model of the hair regeneration, which is studied by Dr. Chuong in University of Southern California.
The mouse model adopts female C57BL/6 mice (about 8 weeks).
In accordance with the reports (Muller-Rover et al., 2001; Plikus et al., 2009), after the hair removal on the dorsal skin of the female C57BL/6 mice by wax or uprooting, the hair follicles enter the anagen phase on the seventh day from hair removal. At this time, the dorsal hair will regenerate during the anagen phase, which continues fourteen days. Such step synchronizes all follicles on the dorsal skin.
The hair follicles on the dorsal skin enter the refractory telogen phase through the anagen phase. The refractory telogen phase continues twenty eight days. In the present disclosure, the sample solution is applied on the dorsal skin, where the hair follicle stays at the refractory telogen phase, to observe whether the peptides are beneficial to hair growth.
In some embodiments shown in FIG. 1, after the hair removal of the dorsal skin, the new growth hair is removed again at twenty first day after the first hair removal. […] The sample solution is applied on each of the sections for 10 days. The administration of the sample solution includes, but not limited to, the injection (50 μl) and the coating (10 μl). In addition, the dosage of the sample solution includes, but not limited to, the high dosage level (2000 μM) and the low dosage level (200 μM).
In order to avoid experimental error due to manual operation, a positive control and a negative control are predetermined on two sections. […] The second section 2 is coated with high dosage level of HGP or the pharmaceutical composition for 10 days (once a day). The third section 3 is coated with low dosage level of HGP or the pharmaceutical composition for 10 days (once a day). The fourth section 4 is coated with 100% alcohol for 10 days (once a day). The fourth section 4 is regarded as the negative control. The fifth section 5 is continuously injected with the high dosage of HGP or pharmaceutical composition for 10 days (once a day). The sixth section 6 is continuously injected with the low dosage of HGP or pharmaceutical composition for 10 days (once a day). The HGP prepared for the sections is the same amino acid sequence.
HGP or pharmaceutical composition having the same as referred at Table 1 is implemented through the above-mentioned process and then the hair regeneration condition is recorded every day. Since the period of the refractory telogen phase is 28 days, it is regarded as a negative result that no hair regeneration is observed at thirtieth day after the administration of the sample solution.
The number x of the hair growth in the table 3 means that the hair regeneration condition is observed at the x'th day after the high dosage level is administrated on the dorsal skin. For instance, the number (x=5) means that the hair growth is observed at the fifth day. Furthermore, the symbol NA represents the need for further analysis. […] In addition, the “negative” represents no hair growth by using the peptide in accordance with the experimental number.

Substance	Number x (hair regeneration condition is observed at the x'th day after administration)
SPLAQAVRGSFG (a designed peptide according to experiments) [P21]	negative
SPLAQAV (a designed peptide according to experiments) [P10]	22 days
SPLAQ (a designed peptide according to experiments) [P3]	22 days
GSFGSAVRSSSR (a designed peptide according to experiments) [P31]	22 days
SPLAQAVRSSSR (a designed peptide according to experiments) [P1]	22 days
PLAQAVRSSSR (a designed peptide according to experiments) [P12]	22 days
GSFAQAVRSSSR (a designed peptide according to experiments) [P29]	22 days
LAQAVRSSSR (a designed peptide according to experiments) [P13]	22 days
GSFGQAVRSSSR (a designed peptide according to experiments) [P30]	negative
AQAVRSSSR (a designed peptide according to experiments) [P14]	22 days
SPLAQAVRSSSRTPS (a designed peptide according to experiments) [P4]	22 days
SPLAQAVRSGSF (a designed peptide according to experiments) [P20]	negative
SPLAQAVR (a designed peptide according to experiments) [P9]	19 days
SPLAQA (a designed peptide according to experiments) [P11]	22 days
GSFGSFVRSSSR (a designed peptide according to experiments) [P32]	negative
VRSSSR (a designed peptide according to experiments) [P17]	negative
AVRSSSR (a designed peptide according to experiments) [P16]	negative
SPLAQAVRSSGS (a designed peptide according to experiments) [P19]	negative
RSSSR (a designed peptide according to experiments) [P5]	22 days

Substance	Number x (hair regeneration condition is observed at the x'th day after administration)
SPLAQAGSFGSF (a designed peptide according to experiments) [P23]	negative
QAGSFGFRSSSR (a designed peptide according to experiments) [P36]	negative
AQAGSFVRSSSR (a designed peptide according to experiments) [P35]	negative
SPLAQAVRSSSRT (a designed peptide according to experiments) [P26]	negative
SPLAQFRSSSRG (a designed peptide according to experiments) [P33]	negative
SPLAQAVRSSSRTP (a designed peptide according to experiments) [P25]	negative
SPLAQAVRSSS (a designed peptide according to experiments) [P6]	negative
LAQAGSVRSSSR (a designed peptide according to experiments) [P34]	negative
GPLAQAVRSSSR (a designed peptide according to experiments) [P27]	22 days
SPLAQAVRSS (a designed peptide according to experiments) [P7]	22 days
SPLAQAVRS (a designed peptide according to experiments) [P8]	negative
QAVRSSSR (a designed peptide according to experiments) [P15]	negative
SPLAQAVRSSSG [P18]	negative
SPLAQGSFGSFG [P24]	negative
SPLAQAVGSFGS (a designed peptide according to experiments) [P22]	negative
GSLAQAVRSSSR (a designed peptide according to experiments) [P28]	negative
AGSFFSGRSSSR (a designed peptide according to experiments) [P37]	22 days
VRSSS (a designed peptide according to experiments) [P2]	negative

Reference: US9597370B2, “Method for promoting hair growth” (INDUSTRIAL TECHNOLOGY RESEARCH INSTITUTE, priority 2013, dated 2017)
